According to a compilation of properties of binary mixtures (doi:10.1021/acs.jced.5b00753):

Assay: xn = mol fraction of the nth substance listed
Details: 101 kPa

CC[n+]1ccn(C)c1.F[B-](F)(F)F + CC(=O)N(C)C
viscosity [mPa·s]
Details	x2 = 0	x2 = 0.0996	x2 = 0.1998	x2 = 0.2995	x2 = 0.3989	x2 = 0.5005	x2 = 0.6	x2 = 0.6996	x2 = 0.8001	x2 = 0.8994
303.15 K	–	22.75	–	13.99	10.62	7.83	–	–	–	1.549
313.15 K	20.41	16.86	13.59	10.65	8.23	–	–	3.147	2.092	1.328
323.15 K	–	12.8	10.45	–	6.555	4.982	3.69	2.638	1.79	1.154
333.15 K	12.08	10.09	8.31	–	–	4.122	3.115	2.252	1.563	1.029

CC(=O)N(C)C + CC[n+]1ccn(C)c1.F[B-](F)(F)F
x1 = 1
Details	viscosity [mPa·s]
303.15 K	0.862
313.15 K	0.758
323.15 K	0.673
333.15 K	0.602

CN(C)C=O + CC[n+]1ccn(C)c1.F[B-](F)(F)F
x1 = 1
Details	viscosity [mPa·s]
303.15 K	0.744
323.15 K	0.6

CS(C)=O + CC[n+]1ccn(C)c1.F[B-](F)(F)F
x1 = 1
Details	viscosity [mPa·s]
303.15 K	1.784
313.15 K	1.498
323.15 K	1.27
333.15 K	1.095

CC[n+]1ccn(C)c1.F[B-](F)(F)F + CN(C)C=O
viscosity [mPa·s]
Details	x2 = 0	x2 = 0.1016	x2 = 0.2016	x2 = 0.2994	x2 = 0.3987	x2 = 0.5005	x2 = 0.6004	x2 = 0.7	x2 = 0.7997	x2 = 0.8999
303.15 K	28	21.61	–	12.55	9.33	6.703	4.72	3.214	2.114	1.305
313.15 K	–	16.03	12.53	9.74	–	–	3.867	2.689	–	1.144
323.15 K	–	12.29	9.8	–	5.935	–	–	2.293	1.567	–
333.15 K	12.08	9.72	7.83	6.291	4.93	3.744	2.775	1.993	1.387	0.899

CC[n+]1ccn(C)c1.F[B-](F)(F)F + CS(C)=O
viscosity [mPa·s]
Details	x2 = 0	x2 = 0.1001	x2 = 0.2007	x2 = 0.2996	x2 = 0.4	x2 = 0.4996	x2 = 0.6002	x2 = 0.7002	x2 = 0.7996	x2 = 0.9002
303.15 K	28	24.39	–	–	14.08	11.13	–	6.249	–	2.928
313.15 K	20.41	17.83	15.25	–	10.59	8.46	6.575	4.936	3.515	2.385
323.15 K	15.35	13.54	11.62	9.91	–	6.667	5.296	3.971	2.893	–
333.15 K	12.08	10.64	9.18	7.87	6.571	5.382	4.335	3.294	2.438	–
